Drawing on US11345669B2, “Urea derivatives and methods of use thereof” (NodThera Limited, priority 2017, dated 2022), this text covers IC50 for 14 compounds.

Some results are limits rather than exact numbers.

The first assay has as its system IL1-β release upon NLRP3 activation in peripheral blood mononuclear cells (PBMC). Kind of assay: PBMC IC50 Determination Assay. It counts as cell-based. The settings on record: Homo sapiens, PBMC, read-out: PBMCs, IC50, μM. How it is done:
PBMC IC50 Determination Assay
The compounds of the present disclosure were tested for their inhibitory activity against IL1-β release upon NLRP3 activation in peripheral blood mononuclear cells (PBMC).
Isolated cells were seeded into the wells of a 96-well plate and incubated for 3 h with lipopolysaccharide (LPS). Following medium exchange, the compounds of the present disclosure were added (a single compound per well) and the cells were incubated for 30 min. Next, the cells were stimulated either with ATP (5 mM) or nigericin (10 μM) for 1 h and the cell culture media from the wells were collected for further analysis.
The release of IL-1β into the media was determined by a quantitative detection of IL-1β in 5 the media using an IL-1β enzyme-linked immunosorbent assay (ELISA) Ready-SET-Go!, eBioscience cat. […] Subsequently, plates were blocked with blocking buffer for 1 h at room temperature (rt) and after washing with a buffer (PBS with 0.05% Tween-20) incubated with protein standard and culture media. […] Plates were washed and incubated with HRP-streptavidin for 30 min at rt and washed again. The signal was developed after addition of 3,39,S,59-tetramethylbenzidine-peroxidase (TMB) until color appeared and the reaction was stopped by 2 M H2SO4. A microplate spectrophotometer (BioTek) was used to detect signals with 450 nm. The detection range of IL-1β ELISA was […].
Usually IC50 stands for the point on the concentration scale where inhibition reaches its midpoint. For the compound `COC(=O)C(Cc1cnn(C)c1)NC(=O)Nc1c2c(cc3c1CCC3)CCC2` (centres unmarked) [Example 2Q, Methyl 2-{[(1,2,3,5,6,7-hexahydro-s-indacen-4-yl)carbamoyl]amino}-3-(1-methyl-1H-pyrazol-4-yl)propanoate], the IC50 was 2.4 µM.

With `COC(=O)CC[C@@H](NC(=O)Nc1c2c(cc3c1CCC3)CCC2)C(=O)OC` [Example 2S, 1,5-dimethyl(2R)-2-{[(1,2,3,5,6,7-hexahydro-s-indacen-4-yl)carbamoyl]amino}pentanedioate], the IC50 is 3.5 µM.

On to `CCOC(=O)CNC(=O)Nc1cc2c(c3c1CCCC3)CCC2` [Example 2T, Ethyl 2-[({1H,2H,3H,6H,7H,8H,9H-cyclopenta[a]naphthalen-5-yl}carbamoyl)amino] acetate], for which the IC50 was determined as 3.1 µM.

The same assay, now with this note: Homo sapiens; PBMC from buffy coats, LPS 3 h, compound 30 min, then ATP (5 mM) or nigericin (10 μM) for 1 h; IL-1β in media by ELISA; read-out: PBMCs, IC50.
For `COC(=O)[C@@H](CCSC)NC(=O)Nc1c2c(cc3c1CCC3)CCC2` [Example 2O, Methyl(2R)-2-{[(1,2,3,5,6,7-hexahydro-s-indacen-4-yl)carbamoyl]amino}-4-(methylsulfanyl)butanoate], the IC50 turned out to be 3.2 µM.

On to `O=C(Nc1c2c(cc3c1CCC3)CCC2)N[C@H](Cc1cccnc1)C(=O)OCC1CC1` [Example 2OO, cyclopropylmethyl(2R)-2-{[(1,2,3,5,6,7-hexahydro-s-indacen-4-yl)carbamoyl]amino}-3-(pyridin-3-yl)propanoate], for which the IC50 is 0.47 µM.

In the case of `COC(=O)[C@@H](Cc1cccc(NC(C)=O)c1)NC(=O)Nc1c2c(cc3c1CCC3)CCC2` [Example 2P, Methyl(2R)-3-(3-acetamidophenyl)-2-{[(1,2,3,5,6,7-hexahydro-s-indacen-4-yl)carbamoyl]amino}propanoate], the IC50 is 0.14 µM.

Turning to `O=C(Nc1c2c(cc3c1CCC3)CCC2)N[C@H](Cc1cccnc1)C(=O)OC1CCCC1` [Example 2PP, cyclopentyl(2R)-2-{[(1,2,3,5,6,7-hexahydro-s-indacen-4-yl)carbamoyl]amino}-3-(pyridin-3-yl)propanoate], the IC50 is 0.24 µM.

On to `COC(=O)[C@@H](CC#N)NC(=O)Nc1c2c(cc3c1CCC3)CCC2` [Example 2QQ, methyl(2R)-3-cyano-2-{[(1,2,3,5,6,7-hexahydro-s-indacen-4yl)carbamoyl]amino}propanoate], for which the IC50 is less than 10 µM.

For the compound `COC(=O)[C@@H](Cc1cccc(N2CCCC2=O)c1)NC(=O)Nc1c2c(cc3c1CCC3)CCC2` [Example 2R, Methyl(2R)-2-{[(1,2,3,5,6,7-hexahydro-s-indacen-4-yl)carbamoyl]amino}-3-[3-(2-oxopyrrolidin-1-yl)phenyl]propanoate], the IC50 amounted to 0.33 µM.

As to `CCOC(=O)[C@@H](Cc1cccnc1)NC(=O)Nc1c2c(cc3c1CCC3)CCC2` [Example 2RR, ethyl(2R)-2-{[(1,2,3,5,6,7-hexahydro-s-indacen-4-yl)carbamoyl]amino}-3-(pyridin-3-yl)propanoate], the IC50 worked out at 1.7 µM.

In the case of `O=C(Nc1c2c(cc3c1CCC3)CCC2)N[C@H](Cc1ccccc1)C(=O)O` [Example 2SS, (2R)-2-{[(1,2,3,5,6,7-hexahydro-s-indacen-4-yl)carbamoyl]amino}-3-phenylpropanoic acid], the concentration for half-maximal inhibition (IC50) came to 14 µM.

`COC(=O)C(Cn1cc(C)cn1)NC(=O)Nc1c2c(cc3c1CCC3)CCC2` (centres unmarked) [Example 2TT, Methyl 2-{[(1,2,3,5,6,7-hexahydro-s-indacen-4-yl)carbamoyl]amino}-3-(4-methyl-1H-pyrazol-1-yl)propanoate]: the IC50 was found to be 14 µM.

With `COC(=O)[C@@H](Cc1cccc(Nc2cc[nH]n2)c1)NC(=O)Nc1c2c(cc3c1CCC3)CCC2` [Example 2U, Methyl(2R)-2-{[(1,2,3,5,6,7-hexahydro-s-indacen-4-yl)carbamoyl]amino}-3-{3-[(1H-pyrazol-3-yl)amino]phenyl}propanoate], the IC50 turned out to be 0.31 µM.

Regarding `CCOC(=O)[C@@H](Cc1cccnc1)NC(=O)Nc1c(C(C)C)cccc1C(C)C` [Example 2UU, Ethyl (2R)-2-({[2,6-bis(propan-2-yl)phenyl]carbamoyl}amino)-3-(pyridin-3-yl)propanoate], the IC50 was 21 µM.
